Experimental data reported in ChEMBL document CHEMBL5715956, “Selective Targeting of Bromodomains of the Bromodomain-PHD Fingers Family Impairs Osteoclast Differentiation” (ACS Chem Biol, 2017).

Legend:
[1] = molecular target: Adrenergic receptor alpha-2 (Homo sapiens) (UniProt P08913+P18825+P18089); assay: Inhibition of Alpha 2 receptor (unknown origin) at 10 uM relative to control; type: protein assay
[2] = molecular target: T1, Bromodomain-containing protein 1 (Homo sapiens) (UniProt O95696); assay: Binding affinity to BRPF2 (unknown origin) assessed as change in enthalpy at 12 uM by Isothermal titration calorimetry
T1 sequence (whole entry): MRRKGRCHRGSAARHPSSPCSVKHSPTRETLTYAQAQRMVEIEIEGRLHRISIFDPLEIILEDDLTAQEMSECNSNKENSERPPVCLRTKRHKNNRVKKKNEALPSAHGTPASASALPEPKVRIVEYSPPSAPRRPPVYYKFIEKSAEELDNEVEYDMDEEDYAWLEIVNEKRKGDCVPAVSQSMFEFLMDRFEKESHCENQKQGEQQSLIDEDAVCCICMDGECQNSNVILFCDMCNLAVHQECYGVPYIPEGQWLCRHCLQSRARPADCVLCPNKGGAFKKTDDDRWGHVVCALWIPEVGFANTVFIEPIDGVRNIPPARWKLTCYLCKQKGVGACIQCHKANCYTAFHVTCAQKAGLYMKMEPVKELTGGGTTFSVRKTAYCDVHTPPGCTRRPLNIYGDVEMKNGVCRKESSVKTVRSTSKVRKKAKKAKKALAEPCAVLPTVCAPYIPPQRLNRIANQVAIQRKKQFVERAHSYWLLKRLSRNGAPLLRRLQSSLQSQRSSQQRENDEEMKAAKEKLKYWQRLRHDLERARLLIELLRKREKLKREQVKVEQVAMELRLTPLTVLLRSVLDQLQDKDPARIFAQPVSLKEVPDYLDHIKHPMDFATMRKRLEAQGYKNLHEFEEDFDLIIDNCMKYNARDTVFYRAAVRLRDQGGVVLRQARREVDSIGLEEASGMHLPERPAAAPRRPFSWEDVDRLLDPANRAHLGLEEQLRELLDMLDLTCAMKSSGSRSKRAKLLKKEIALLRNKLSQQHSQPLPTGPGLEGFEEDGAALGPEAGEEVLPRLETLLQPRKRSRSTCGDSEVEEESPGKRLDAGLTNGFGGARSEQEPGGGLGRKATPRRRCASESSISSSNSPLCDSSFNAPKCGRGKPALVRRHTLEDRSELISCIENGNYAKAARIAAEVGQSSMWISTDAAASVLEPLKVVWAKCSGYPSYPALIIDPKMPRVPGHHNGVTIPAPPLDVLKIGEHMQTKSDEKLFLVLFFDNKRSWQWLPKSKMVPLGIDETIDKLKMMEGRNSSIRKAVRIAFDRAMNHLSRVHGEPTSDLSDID

Homo sapiens = organism: Homo sapiens; settings: dose 10.0 µM
[3] = molecular target: Transcription intermediary factor 1-beta (Homo sapiens) (UniProt Q13263); settings: dose 10.0 µM
[4] = molecular target: Adenosine receptor A1 (Homo sapiens) (UniProt P30542); assay: Binding affinity to A1 receptor (unknown origin) assessed as specific binding at 10 uM relative to control
[5] = molecular target: T1, Bromodomain-containing protein 1 (Homo sapiens); assay: Binding affinity to BRPF2 (unknown origin) assessed as change in gibbs free energy at 12 uM by Isothermal titration calorimetry
[6] = molecular target: Protein polybromo-1 (Homo sapiens) (UniProt Q86U86); settings: dose 10.0 µM
Peregrin (Homo sapiens) [7] = molecular target: T2, Peregrin (Homo sapiens) (UniProt P55201); settings: dose 10.0 µM
T2 sequence (whole entry): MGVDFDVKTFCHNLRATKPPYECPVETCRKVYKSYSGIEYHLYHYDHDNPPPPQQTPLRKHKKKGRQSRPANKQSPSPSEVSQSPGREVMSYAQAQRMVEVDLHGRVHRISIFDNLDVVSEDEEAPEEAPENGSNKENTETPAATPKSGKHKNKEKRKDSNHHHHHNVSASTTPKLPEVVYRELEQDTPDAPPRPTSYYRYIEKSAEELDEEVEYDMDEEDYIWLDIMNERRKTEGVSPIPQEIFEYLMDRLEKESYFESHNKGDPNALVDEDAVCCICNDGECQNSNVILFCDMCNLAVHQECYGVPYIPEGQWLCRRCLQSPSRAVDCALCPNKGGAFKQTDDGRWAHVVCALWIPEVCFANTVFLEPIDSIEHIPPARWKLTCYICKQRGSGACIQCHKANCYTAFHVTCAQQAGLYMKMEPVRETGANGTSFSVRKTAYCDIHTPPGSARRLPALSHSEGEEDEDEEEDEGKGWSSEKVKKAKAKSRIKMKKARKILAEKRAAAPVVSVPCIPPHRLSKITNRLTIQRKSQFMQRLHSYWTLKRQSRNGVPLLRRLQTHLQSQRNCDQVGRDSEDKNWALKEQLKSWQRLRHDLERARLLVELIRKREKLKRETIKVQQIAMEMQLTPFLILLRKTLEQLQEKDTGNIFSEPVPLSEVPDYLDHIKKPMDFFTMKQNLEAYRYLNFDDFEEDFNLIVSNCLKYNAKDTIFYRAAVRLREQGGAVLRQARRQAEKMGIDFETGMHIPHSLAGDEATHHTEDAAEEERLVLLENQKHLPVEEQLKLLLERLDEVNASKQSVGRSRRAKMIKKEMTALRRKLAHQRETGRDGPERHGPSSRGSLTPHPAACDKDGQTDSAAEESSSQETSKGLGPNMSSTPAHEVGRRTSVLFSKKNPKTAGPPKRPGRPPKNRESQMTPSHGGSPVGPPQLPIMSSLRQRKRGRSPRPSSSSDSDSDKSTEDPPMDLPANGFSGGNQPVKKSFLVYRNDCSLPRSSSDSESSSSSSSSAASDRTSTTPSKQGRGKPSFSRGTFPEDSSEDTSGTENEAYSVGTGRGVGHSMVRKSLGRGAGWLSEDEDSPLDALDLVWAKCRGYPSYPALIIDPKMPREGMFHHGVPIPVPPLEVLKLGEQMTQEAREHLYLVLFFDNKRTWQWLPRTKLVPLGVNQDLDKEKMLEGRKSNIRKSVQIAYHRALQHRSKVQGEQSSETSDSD

[8] = molecular target: Histone acetyltransferase p300 (Homo sapiens) (UniProt Q09472); settings: dose 10.0 µM
[9] = molecular target: Bromodomain testis-specific protein (Homo sapiens) (UniProt Q58F21); settings: dose 10.0 µM
[10] = molecular target: T1, Bromodomain-containing protein 1 (Homo sapiens); assay: Binding affinity to BRPF2 (unknown origin) assessed as association constant at 12 uM by Isothermal titration calorimetry
Peregrin (Homo sapiens) [11] = molecular target: T2, Peregrin (Homo sapiens); assay: Binding affinity to […] (unknown origin) assessed as change in entropy TdeltaS at 17 uM by Isothermal titration calorimetry
[12] = molecular target: ATPase family AAA domain-containing protein 2B (Homo sapiens) (UniProt Q9ULI0); settings: dose 10.0 µM
ATPase family AAA domain-containing protein 2B (Homo sapiens), sequence (Q9ULI0 whole entry, the tested form may be a part): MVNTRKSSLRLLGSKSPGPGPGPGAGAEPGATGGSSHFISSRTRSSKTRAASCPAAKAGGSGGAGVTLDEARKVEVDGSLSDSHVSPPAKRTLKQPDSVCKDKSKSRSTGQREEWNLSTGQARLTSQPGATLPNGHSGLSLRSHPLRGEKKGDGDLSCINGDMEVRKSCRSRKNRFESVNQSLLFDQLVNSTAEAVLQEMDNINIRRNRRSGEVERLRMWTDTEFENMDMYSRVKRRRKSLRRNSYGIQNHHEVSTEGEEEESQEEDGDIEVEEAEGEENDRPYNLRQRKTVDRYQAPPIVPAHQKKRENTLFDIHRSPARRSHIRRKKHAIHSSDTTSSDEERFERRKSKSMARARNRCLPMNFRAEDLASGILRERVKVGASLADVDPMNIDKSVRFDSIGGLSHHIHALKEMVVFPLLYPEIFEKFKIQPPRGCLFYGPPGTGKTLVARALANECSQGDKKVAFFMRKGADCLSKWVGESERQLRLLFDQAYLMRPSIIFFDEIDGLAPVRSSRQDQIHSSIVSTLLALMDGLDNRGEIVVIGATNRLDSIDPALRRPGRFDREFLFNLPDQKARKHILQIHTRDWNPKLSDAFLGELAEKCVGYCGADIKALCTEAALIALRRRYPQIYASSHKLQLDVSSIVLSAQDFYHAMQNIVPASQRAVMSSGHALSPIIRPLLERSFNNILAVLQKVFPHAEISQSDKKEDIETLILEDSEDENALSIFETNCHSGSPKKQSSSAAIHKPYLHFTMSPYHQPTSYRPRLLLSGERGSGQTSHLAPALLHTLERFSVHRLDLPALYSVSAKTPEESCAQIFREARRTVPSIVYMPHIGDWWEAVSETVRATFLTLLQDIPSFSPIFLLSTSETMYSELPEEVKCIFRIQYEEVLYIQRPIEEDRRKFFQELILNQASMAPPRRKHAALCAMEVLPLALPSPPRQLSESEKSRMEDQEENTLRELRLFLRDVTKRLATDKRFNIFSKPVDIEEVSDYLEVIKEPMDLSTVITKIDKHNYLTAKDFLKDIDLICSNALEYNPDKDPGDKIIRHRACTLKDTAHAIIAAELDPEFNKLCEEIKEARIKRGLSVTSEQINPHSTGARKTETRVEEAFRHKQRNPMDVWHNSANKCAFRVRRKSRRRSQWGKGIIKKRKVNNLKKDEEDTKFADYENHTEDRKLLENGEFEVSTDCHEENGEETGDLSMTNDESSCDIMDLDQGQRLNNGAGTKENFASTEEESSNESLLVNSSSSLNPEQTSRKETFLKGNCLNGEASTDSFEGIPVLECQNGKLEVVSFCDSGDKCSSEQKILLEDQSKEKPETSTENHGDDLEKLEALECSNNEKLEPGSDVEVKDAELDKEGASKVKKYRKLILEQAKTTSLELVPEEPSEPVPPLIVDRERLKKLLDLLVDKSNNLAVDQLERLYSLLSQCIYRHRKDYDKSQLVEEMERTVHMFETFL

Protein polybromo-1 (Homo sapiens), sequence (Q86U86 whole entry): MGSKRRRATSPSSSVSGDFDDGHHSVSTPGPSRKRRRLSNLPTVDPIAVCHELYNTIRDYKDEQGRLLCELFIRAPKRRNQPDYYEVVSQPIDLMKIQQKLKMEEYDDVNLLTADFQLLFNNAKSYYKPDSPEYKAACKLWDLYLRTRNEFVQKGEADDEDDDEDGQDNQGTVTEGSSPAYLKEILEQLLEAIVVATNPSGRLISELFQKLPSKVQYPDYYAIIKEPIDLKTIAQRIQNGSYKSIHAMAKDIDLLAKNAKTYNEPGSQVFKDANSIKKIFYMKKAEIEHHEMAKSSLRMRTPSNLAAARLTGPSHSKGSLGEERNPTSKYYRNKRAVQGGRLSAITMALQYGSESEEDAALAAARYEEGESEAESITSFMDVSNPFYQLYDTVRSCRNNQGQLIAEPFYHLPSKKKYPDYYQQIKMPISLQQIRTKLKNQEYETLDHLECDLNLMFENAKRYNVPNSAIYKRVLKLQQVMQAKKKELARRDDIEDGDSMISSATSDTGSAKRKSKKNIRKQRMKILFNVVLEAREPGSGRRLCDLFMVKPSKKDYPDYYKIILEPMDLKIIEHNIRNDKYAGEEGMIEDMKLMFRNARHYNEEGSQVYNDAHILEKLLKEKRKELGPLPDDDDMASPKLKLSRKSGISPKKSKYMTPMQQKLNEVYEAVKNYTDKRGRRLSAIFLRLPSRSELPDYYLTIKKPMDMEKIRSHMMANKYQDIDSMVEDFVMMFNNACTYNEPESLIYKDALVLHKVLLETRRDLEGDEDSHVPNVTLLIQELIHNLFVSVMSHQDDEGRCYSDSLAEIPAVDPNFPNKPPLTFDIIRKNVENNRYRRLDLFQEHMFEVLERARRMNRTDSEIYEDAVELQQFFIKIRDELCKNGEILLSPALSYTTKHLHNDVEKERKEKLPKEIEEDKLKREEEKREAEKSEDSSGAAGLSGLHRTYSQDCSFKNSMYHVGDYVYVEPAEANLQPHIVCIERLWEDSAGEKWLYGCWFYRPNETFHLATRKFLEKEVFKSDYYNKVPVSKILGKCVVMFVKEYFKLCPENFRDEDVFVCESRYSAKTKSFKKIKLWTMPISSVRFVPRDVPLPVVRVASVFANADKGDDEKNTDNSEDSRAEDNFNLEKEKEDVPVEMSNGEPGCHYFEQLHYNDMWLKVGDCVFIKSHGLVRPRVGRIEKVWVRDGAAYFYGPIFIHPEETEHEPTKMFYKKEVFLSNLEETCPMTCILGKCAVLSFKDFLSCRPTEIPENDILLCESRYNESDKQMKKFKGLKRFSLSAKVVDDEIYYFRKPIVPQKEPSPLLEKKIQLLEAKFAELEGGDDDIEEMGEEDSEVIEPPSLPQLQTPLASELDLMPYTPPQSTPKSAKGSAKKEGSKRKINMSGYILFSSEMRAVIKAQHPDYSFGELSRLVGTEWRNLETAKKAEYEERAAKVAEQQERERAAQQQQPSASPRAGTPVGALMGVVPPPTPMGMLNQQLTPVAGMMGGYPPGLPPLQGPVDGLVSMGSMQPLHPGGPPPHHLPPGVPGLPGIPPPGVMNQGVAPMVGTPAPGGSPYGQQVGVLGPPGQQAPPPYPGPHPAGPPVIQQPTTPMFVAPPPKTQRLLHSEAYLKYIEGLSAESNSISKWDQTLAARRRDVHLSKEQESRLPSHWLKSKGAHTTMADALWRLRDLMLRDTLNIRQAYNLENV
Transcription intermediary factor 1-beta (Homo sapiens), sequence (Q13263 whole entry): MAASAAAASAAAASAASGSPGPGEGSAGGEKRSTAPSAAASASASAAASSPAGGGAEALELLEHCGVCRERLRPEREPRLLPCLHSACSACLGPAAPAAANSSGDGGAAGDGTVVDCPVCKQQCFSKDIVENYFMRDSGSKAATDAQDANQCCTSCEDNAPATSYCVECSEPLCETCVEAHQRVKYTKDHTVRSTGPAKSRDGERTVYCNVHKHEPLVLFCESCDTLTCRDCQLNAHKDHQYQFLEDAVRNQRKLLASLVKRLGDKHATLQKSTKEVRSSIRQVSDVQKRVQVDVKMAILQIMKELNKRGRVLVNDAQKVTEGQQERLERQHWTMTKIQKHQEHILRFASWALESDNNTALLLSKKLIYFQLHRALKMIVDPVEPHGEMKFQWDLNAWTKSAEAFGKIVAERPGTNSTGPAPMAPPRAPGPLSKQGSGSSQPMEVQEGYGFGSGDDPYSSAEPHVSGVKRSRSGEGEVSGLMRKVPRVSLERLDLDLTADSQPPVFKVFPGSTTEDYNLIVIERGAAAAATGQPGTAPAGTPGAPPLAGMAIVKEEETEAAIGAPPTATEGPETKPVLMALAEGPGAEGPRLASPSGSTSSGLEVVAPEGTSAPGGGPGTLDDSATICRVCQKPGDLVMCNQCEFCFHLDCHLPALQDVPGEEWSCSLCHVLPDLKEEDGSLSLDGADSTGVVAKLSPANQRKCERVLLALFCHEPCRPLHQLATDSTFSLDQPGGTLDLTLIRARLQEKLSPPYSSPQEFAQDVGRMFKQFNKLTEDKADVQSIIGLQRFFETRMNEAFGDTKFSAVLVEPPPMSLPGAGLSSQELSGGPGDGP
Adenosine receptor A1 (Homo sapiens), sequence (P30542 whole entry): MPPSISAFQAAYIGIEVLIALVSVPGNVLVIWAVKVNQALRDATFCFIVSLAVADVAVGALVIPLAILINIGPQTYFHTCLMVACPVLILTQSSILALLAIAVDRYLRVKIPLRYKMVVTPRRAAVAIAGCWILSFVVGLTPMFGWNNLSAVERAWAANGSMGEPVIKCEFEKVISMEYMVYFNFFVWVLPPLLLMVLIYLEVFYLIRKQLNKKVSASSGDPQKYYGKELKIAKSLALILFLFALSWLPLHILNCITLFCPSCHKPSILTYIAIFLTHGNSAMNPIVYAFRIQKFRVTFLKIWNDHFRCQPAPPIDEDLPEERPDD

inhibition [1]: -3% | deltaH [2]: -9.5 kcal/mol | ΔTm (Homo sapiens): 0.2 °C | ΔTm [3]: 0.2 °C | Activity [4]: 19.8% | deltaG [5]: -8.3 kcal/mol | ΔTm [6]: 0.2 °C | ΔTm (Peregrin (Homo sapiens) [7]): 6.5 °C | ΔTm [8]: 0.7 °C | ΔTm [9]: 0.4 °C | Ka [10]: 1.98 10^6 M^-1 | TdeltaS (Peregrin (Homo sapiens) [11]): -3.34 kcal/mol | ΔTm [12]: -0.3 °C
Compound: COc1cc2c(cc1NS(=O)(=O)c1ccc(Br)cc1C)n(C)c(=O)n2C
